Laboratory results reported in publication PMC9663686, “Proline, hydroxyproline, and pyrrolidone carboxylic acid derivatives as highly efficient but reversible transdermal permeation enhancers” (Scientific Reports, 2022).

Assays:
[1] = test system: rat skin; conditions: 5% concentration (154 mM), topical; cited from earlier work
[2] = Skin viability after topical enhancer application (TTC reduction test); conditions: human, freshly excised full thickness human skin, 1% in 60% PG for 24 or 48 h, decrease not significant, read-out: viability of treated skin relative to untreated skin
Procedure: Freshly excised full thickness human skin was incubated in Dulbecco’s modified Eagle’s medium (DMEM, Lonza, Verviers, Belgium) supplemented with 10% heat-inactivated fetal bovine serum (Merck, Darmstadt, Germany), and 1% penicillin/streptomycin + 1% amphotericin B solution (Lonza, Verviers, Belgium) at 37 °C in a humidified atmosphere of 5% CO2. Skin fragments were treated with 1% enhancer in 60% PG, 20 µl/cm^2, 60% PG alone or left untreated for 24 or 48 h. Then the skin was washed rinsed with distilled water and gently blotted dry. Skin viability was evaluated using the 2,3,5-triphenyltetrazolium chloride (TTC) reduction test[57]. Punch biopsies of 5 mm diameter were incubated in 1 ml of 1.5% TTC and 3% sodium succinate in phosphate buffered saline at pH 7.4 at 37 °C under nitrogen in the dark. After 1 h, the skin samples were dried and the dark red formazan derivative produced by the mitochondrial enzymes was extracted with 1 ml of 2-methoxyethanol for 12 h. Absorbance was measured at 490 nm using Tecan Infinite 200 M plate reader (Tecan, Grödig, Austria) and corrected using skin samples devitalized by boiling as a negative control. The viability of skin exposed to the different preparations was expressed as a percentage of untreated control skin.

SMILES | visible changes in rat skin after topical application [1] | viability at 1 % [2]
CCCCCCCCCCCCOC(=O)C1CCCN1C(C)=O (stereo not drawn) [Pro2, N-acetyl proline dodecyl ester] | did not cause any visible changes in rat skin | –
CCCCCCCCCCCCOC(=O)C1CCCN1C(=O)CCC (stereo not drawn) [Pro4] | – | ≥ 92%
CCCCCCCCCCCCOC(=O)C1CCCN1C(=O)CC (stereo not drawn) [Pro3] | – | ≥ 92%
